Assay results from ChEMBL document CHEMBL3751781, “Three-dimensional QSAR analysis and design of new 1,2,4-oxadiazole antibacterials” (2016).
Values after ≈ are worked out from the molar mass of the structure shown.

Tested on: Staphylococcus aureus
Assay: Antibacterial against Staphylococcus aureus
Format: functional
Details: for MIC: Staphylococcus aureus

Compound	MIC	-logMIC
Brc1ccc(-c2nc(-c3ccccc3)no2)cc1	128 µg/mL (≈ 425 µM)	0.856
O=[N+]([O-])c1c[nH]nc1-c1nc(-c2ccc(Oc3ccc(C(F)(F)F)cc3)cc2)no1		5.341
Oc1ccc(-c2nc(-c3ccc(Oc4cccc(CBr)c4)cc3)no2)cc1	4 µg/mL (≈ 9.45 µM)	4.662
[N-]=[N+]=Nc1cc(-c2noc(-c3ccc(O)cc3)n2)ccc1Oc1ccccc1	2 µg/mL (≈ 5.39 µM)	5.224
O=c1[nH]c(-c2ccc(Oc3ccccc3)cc2)no1	128 µg/mL (≈ 503 µM)	0.686
Nc1ccc(-c2nc(-c3ccc(Oc4ccc(C(F)(F)F)cc4)cc3)no2)cc1F		5.336
FC(F)(F)c1ccc(Oc2ccc(-c3noc(-c4ccc5[nH]ccc5c4)n3)cc2)cc1		4.657
Oc1c(F)cc(-c2nc(-c3ccc(Oc4ccc(F)cc4)cc3)no2)cc1F		3.872
FC(F)(F)c1ccc(Oc2ccc(-c3noc(-c4n[nH]cc4Br)n3)cc2)cc1		6.11
Nc1ccc(-c2nc(-c3ccc(Oc4ccccc4)cc3)no2)cc1		4.411
Fc1ccc(Oc2ccc(-c3noc(-c4ccc(Br)cc4)n3)cc2)cc1	128 µg/mL (≈ 311 µM)	1.167
O=[N+]([O-])c1c[nH]nc1-c1nc(-c2ccc(Oc3ccc(F)cc3)cc2)no1		5.906

Now from value to compound, other results behind:

MIC	Compound	-logMIC
128 µg/mL (≈ 272 µM)	CC(=O)N(C(C)=O)c1c[nH]nc1-c1nc(-c2ccc(Oc3ccc(C(F)(F)F)cc3)cc2)no1	1.304
128 µg/mL (≈ 340 µM)	O=C(O)c1ccc(-c2nc(-c3ccc(Oc4ccc(F)cc4)cc3)no2)cc1	1.079
8 µg/mL (≈ 16.8 µM)	O=[N+]([O-])c1c[nH]nc1-c1nc(-c2ccc(Oc3ccc(I)cc3)cc2)no1	4.084
128 µg/mL (≈ 287 µM)	O=[N+]([O-])c1ccc(-c2nc(-c3ccc(Oc4ccc(C(F)(F)F)cc4)cc3)no2)cc1F	1.247
2 µg/mL (≈ 5.19 µM)	O=[N+]([O-])c1c[nH]nc1-c1nc(-c2ccc(Oc3ccc(F)c(F)c3)cc2)no1	5.261
128 µg/mL (≈ 314 µM)	COc1ccc(-c2nc(-c3ccc(Oc4ccc(F)cc4)cc3)no2)cc1[N+](=O)[O-]	1.158
